Structures are written as SMILES. Values joined by “and” are separate entries in the source; they are usually repeats but may differ in a detail not shown here. Equal values may be shown once.

The values below come from paper PMC12647759 (Scientific Reports, 2025).

The target of assay [1] is T1, human PLCγ1 (Homo sapiens, UniProt P19174).
T1 construct: expressing the full-length polypeptides of human PLCε, PLCβ4, PLCδ1 and PLCγ1 as FLAG fusions; made in house; host or cells: Expi293F cells
T1 sequence (P19174 1-1290): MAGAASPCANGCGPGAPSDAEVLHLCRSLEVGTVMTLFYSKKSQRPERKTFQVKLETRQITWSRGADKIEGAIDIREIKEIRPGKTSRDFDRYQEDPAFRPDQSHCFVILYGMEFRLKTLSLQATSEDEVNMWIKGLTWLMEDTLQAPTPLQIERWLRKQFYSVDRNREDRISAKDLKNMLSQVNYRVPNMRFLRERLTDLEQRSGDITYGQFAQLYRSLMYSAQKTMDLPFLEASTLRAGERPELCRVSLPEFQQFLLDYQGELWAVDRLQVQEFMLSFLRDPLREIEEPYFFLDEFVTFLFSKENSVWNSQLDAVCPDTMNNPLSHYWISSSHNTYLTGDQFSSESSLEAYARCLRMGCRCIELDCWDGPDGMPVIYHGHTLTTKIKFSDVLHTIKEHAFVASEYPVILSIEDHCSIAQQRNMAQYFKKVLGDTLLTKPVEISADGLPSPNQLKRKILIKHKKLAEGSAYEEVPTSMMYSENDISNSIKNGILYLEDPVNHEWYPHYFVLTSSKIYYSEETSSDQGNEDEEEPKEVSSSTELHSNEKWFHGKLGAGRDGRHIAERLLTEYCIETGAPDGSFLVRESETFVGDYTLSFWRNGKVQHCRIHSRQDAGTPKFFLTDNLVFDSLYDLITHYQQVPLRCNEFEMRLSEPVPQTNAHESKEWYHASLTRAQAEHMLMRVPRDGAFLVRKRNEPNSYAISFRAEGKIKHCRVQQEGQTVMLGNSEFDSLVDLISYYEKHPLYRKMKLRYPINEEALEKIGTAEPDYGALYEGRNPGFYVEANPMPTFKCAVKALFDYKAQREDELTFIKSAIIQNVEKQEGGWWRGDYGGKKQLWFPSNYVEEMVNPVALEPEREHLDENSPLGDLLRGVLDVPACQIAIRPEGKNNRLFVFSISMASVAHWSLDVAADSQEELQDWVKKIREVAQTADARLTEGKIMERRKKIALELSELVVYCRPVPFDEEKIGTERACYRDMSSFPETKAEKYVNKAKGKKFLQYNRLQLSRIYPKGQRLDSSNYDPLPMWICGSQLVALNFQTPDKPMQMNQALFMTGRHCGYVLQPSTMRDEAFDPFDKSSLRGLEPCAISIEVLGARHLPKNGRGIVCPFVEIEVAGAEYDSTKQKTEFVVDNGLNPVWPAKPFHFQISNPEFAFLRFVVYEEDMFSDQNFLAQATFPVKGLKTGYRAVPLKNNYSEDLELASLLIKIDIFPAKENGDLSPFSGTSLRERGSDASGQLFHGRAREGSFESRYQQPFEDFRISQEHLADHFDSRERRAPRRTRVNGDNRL
The experiment in a line: In vitro PLC assay using fluorogenic substrate Compound 1, PLCγ1. To be noted: for IC50: purified PLCγ1, fluorogenic substrate Compound 1, read-out: IC50, inhibition of PLCγ1 (hydrolysis of Compound 1). It counts as biochemical. On the procedure: (§1) Ten µl of 2 × substrate solutions (50 mM HEPES pH7.2, 200 mM NaCl, 0.2 mM CaCl2, 0.4 mM DTT, 0.4 µM EDTA, 0.02% gelatin, 0.2% sodium cholate and 60 µM Compound 1) were added to each well of a 384-well plate (CONING #3573) containing 10 µl of purified PLCε (120 ng) and incubated with shaking at 30 °C for 3 h. After terminating the reaction by the addition of 2 µl of 5 mM EDTA, the fluorescence emission was measured at 520 nm with the excitation at 485 nm by a microplate reader (POLARstar Omega-25). For measuring inhibition by compounds for HTS, the reactions were conducted at RIKEN Center for Sustainable Resource Science (CSRS) as described above except that 5 µl of compound solution and 5 µl of purified PLCe (120 ng) were added to each well. Solution dispensing and fluorescence detection were conducted by using an automated dispenser (EDR-384, Biotec) and a hybrid multi-mode microplate reader (Synergy H4, Biotec), respectively. For determination of the IC50 values for ZPT and Zn^2+, the EDTA concentration was reduced to one-tenth to avoid its zinc-chelating effect. For assay of the other PLC classes, the reactions were performed similarly except that PLCβ4 (5 ng), PLCδ1 (0.1 ng) or PLCγ1 (0.3 ng) was used instead of PLCε.

Assay [2] addresses T2, human PLCβ4 (Homo sapiens, UniProt Q15147).
T2 construct: expressing the full-length polypeptides of human PLCε, PLCβ4, PLCδ1 and PLCγ1 as FLAG fusions; made in house; host or cells: Expi293F cells
T2 sequence (Q15147 1-1175): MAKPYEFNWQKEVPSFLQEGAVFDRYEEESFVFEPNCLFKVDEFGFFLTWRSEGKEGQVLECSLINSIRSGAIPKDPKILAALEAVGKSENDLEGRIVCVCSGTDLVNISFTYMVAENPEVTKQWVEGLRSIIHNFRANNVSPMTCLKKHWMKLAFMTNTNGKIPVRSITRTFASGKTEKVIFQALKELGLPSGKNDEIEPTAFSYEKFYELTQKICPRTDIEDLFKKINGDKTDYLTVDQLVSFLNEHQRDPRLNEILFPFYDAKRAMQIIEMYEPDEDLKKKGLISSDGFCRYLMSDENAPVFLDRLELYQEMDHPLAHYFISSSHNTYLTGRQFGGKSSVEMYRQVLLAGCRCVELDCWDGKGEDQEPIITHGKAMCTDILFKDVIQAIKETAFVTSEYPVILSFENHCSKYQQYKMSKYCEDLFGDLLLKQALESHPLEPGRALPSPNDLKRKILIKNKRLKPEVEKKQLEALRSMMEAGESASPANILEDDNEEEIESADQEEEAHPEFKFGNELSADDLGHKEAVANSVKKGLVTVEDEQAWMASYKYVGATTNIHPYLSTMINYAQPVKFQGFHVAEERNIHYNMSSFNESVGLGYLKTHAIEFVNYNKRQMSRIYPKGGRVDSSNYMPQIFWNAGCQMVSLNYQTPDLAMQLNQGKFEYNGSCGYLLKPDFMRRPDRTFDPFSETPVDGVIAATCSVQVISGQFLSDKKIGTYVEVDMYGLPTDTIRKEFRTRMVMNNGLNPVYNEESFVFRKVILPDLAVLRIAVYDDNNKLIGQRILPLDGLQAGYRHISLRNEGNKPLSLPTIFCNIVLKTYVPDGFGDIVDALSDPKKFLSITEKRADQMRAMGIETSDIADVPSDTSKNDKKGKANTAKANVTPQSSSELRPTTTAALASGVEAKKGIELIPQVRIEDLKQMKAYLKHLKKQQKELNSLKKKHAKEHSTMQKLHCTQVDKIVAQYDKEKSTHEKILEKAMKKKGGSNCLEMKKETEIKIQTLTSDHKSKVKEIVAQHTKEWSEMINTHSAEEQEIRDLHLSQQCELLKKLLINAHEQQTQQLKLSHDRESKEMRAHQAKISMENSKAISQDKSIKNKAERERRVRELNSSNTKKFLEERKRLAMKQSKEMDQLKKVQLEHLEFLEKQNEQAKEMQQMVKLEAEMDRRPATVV
Nature of the assay: In vitro PLC assay using fluorogenic substrate Compound 1, PLCβ4. It counts as biochemical. The following applies: for IC50: purified PLCβ4, fluorogenic substrate Compound 1, read-out: IC50, inhibition of PLCβ4 (hydrolysis of Compound 1). The procedure:
as §1

The mark [3] stands for this setting: Compound 1 as substrate, varying concentrations.

Regarding `CCCCCCOc1ccc2c(c1)Oc1cc(OP(=O)(O)O[C@H]3[C@H](O)[C@@H](O)[C@H](OP(=O)(O)O)[C@@H](O)[C@H]3O)ccc1C21OC(=O)c2ccccc21` (some centres unmarked) [compound 1], the IC50 (usually the concentration that inhibits the measured activity by half) came to 8.7 µM in assay [1] and 3.7 µM in assay [2].

Turning to `C[n+]1cc2c3c(ccc2c2ccc4cc5c(cc4c21)OCO5)OCO3` [Sanguinarine, sanguinarine], the IC50 in assay [1] is 1.6 µM; in assay [2], 80 µM and 79.7 µM.

On to `O=S(=O)([O-])[O-].[Zn+2]` [ZnSO4], for which the “inhibitory activity toward PLCγ” value in assay [1] (setting [3]) is “without exhibiting any noticeable inhibitory activities”. Moreover, in assay [2] (setting [3]), the “inhibitory activity toward PLCβ” value was “without exhibiting any noticeable inhibitory activities”.

As for `COc1ccc2c(c[n+](C)c3c4cc5c(cc4ccc23)OCO5)c1OC` [chelerythrine], the IC50 in assay [1] worked out at 1.8 µM; in assay [2], 40 µM.
